Source: patent publication EP4768479A1 (Hubei Bio-Pharmaceutical Industrial Technological Institute …, priority 2023, dated 2025)

Tests used:
CYP2B6 = molecular target: T1, CYP2B6 (Homo sapiens, UniProt P20813); assay: CYP inhibition assay in mixed human liver microsomes; type: in vitro ADME; settings: read-out: Inhibition Rate % CYP2B6
T1 construct: Mixed human liver microsomes; from tissue; host or cells: mixed (pooled) human liver microsomes
T1 sequence (P20813 1-491): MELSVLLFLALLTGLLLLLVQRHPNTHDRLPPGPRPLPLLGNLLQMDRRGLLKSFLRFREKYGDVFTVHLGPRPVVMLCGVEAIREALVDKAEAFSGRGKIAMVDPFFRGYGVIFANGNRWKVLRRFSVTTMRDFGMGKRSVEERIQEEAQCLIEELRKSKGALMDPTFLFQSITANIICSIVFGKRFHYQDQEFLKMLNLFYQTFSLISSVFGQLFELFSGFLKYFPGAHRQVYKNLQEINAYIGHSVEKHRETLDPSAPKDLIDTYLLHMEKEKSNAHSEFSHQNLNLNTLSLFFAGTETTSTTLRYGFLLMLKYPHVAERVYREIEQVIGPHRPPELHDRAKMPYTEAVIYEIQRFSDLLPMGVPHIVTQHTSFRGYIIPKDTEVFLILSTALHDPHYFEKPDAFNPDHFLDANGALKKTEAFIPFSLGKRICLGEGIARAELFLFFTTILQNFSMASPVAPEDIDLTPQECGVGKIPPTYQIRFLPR
Method: (§1) The inhibitory effects of the compounds on six enzymes, i.e., CYP1A2, CYP2C9, CYP2C19, CYP2D6, CYP3A4 (midazolam), and CYP2B6, were evaluated at a concentration of 10 µM. Mixed human liver microsomes, which were previously stored in a -80°C refrigerator before use, were taken out and thawed in a water bath at 37°C before use, and placed on ice for further operation. 100 µL of microsome working solution was taken, and added with 2 µL of compound or positive inhibitor working solution. 2 µL of solvent was added to the solvent control. The mixture was pre-incubated in a water bath at 37°C for 10 minutes. After the preincubation, 98 µL of NADPH regeneration solution was added to all samples to initiate the reaction. Then, the samples were put back into the water bath and incubated for a period of time. The reaction was quenched with 200 µL of stop solution. The plate was centrifuged at 3,220 g for 10 minutes, 100 µL of supernatant was transferred, and 100 µL of water was added and mixed well to the assay plate for LC/MS/MS analysis. [Table 2] CYP450 Inhibition Results of Compounds

CYP2C19 = molecular target: T2, CYP2C19 (Homo sapiens, UniProt P33261); assay: as above; type: in vitro ADME; settings: read-out: Inhibition Rate % CYP2C19
T2 construct: Mixed human liver microsomes; from tissue; host or cells: mixed (pooled) human liver microsomes
Method: as §1

CYP2D6 = molecular target: T3, CYP2D6 (Homo sapiens, UniProt P10635); assay: as above; type: in vitro ADME; settings: read-out: Inhibition Rate % CYP2D6
T3 construct: Mixed human liver microsomes; from tissue; host or cells: mixed (pooled) human liver microsomes
Method: as §1

[1] = Liver microsomal stability assay; type: in vitro ADME; settings: human liver microsomes, NADPH, 37°C; read-out: T1/2 (min) Human
Method: The human liver microsome stability assay was performed by co-incubating the compound with human liver microsomes in vitro. The test compounds were first prepared as 10 mM stock solutions in DMSO solvent, and then diluted to 0.5 mM with acetonitrile. Human liver microsomes (Corning) were diluted with PBS to prepare a microsome/buffer solution, and this solution was used to dilute 0.5 mM of the compound to prepare a working solution. In the working solution, a concentration of the compound was 1.5 µM and a concentration of the human liver microsome was 0.75 mg/mL. A deep-well plate was taken, 30 µL of working solution was added to each well of the plate, and then 15 µL of pre-heated NADPH solution (6 mM) was added to start the reaction. The mixture was incubated at 37°C. 135 µL of acetonitrile was added to the corresponding wells to stop the reaction at 0 minute, 5 minutes, 15 minutes, 30 minutes, and 45 minutes of incubation. Subsequent to the stop of the reaction by means of acetonitrile at the last time point of 45 minutes, the plate was vortexed for 10 minutes (600 rpm/min) and then centrifuged for 15 minutes. After the centrifugation, the supernatant was taken, and purified water was added in a 1:1 ratio for LC-MS/MS detection. The ratio of a peak area of the compound to a peak area of the internal standard at individual time points was obtained. The peak area ratios of the compound at 5 minutes, 15 minutes, 30 minutes, and 45 minutes were compared with the peak area ratio at 0 minute, and the remaining percentage of the compound at each time point was calculated. T1/2 was calculated using Graphpad8 software. [Table 3] Liver Microsomal Stability of Compounds

[2] = Pharmacokinetic study following single oral gavage administration to cynomolgus monkeys; type: in vivo; settings: cynomolgus monkey, plasma, 5 mg/kg; Monkey PK PO (5 mpk)
Method: The compounds were dissolved in a vehicle consisting of 5% DMSO+10% Solutol+85% Saline to a concentration of 1 mg/mL, and administered at a dose of 5 mpk. The animals were weighed before the administration, and the dosing volume was calculated based on the body weight. The compounds were administered to the animals via oral gavage. Blood samples were collected via a femoral vein or other suitable methods at time points of 0.083 hours, 0.25 hours, 0.5 hours, 1 hour, 2 hours, 4 hours, 6 hours, 8 hours, and 24 hours. Approximately 1 mL of each sample was collected at each time point, anticoagulated with sodium heparin, and placed on ice immediately after the collection. After the blood samples were collected, they were placed on ice and centrifuged within 1 hour to separate plasma (centrifugation conditions: 2,200g, 10 minutes, and 2°C to 8°C). The plasma samples were stored in a -80°C refrigerator until analysis.
The bioanalytical method and sample analysis were performed by the Analytical Laboratory of Medicilon Inc. (Shanghai, China). Intra-day accuracy of quality control samples was evaluated concurrently with the sample analysis, requiring that accuracy of more than 66.7% of the quality control samples fell within the range of 80% to 120%. [Table 5] Pharmacokinetics of Compounds in Monkeys

T2 sequence (P33261 whole entry): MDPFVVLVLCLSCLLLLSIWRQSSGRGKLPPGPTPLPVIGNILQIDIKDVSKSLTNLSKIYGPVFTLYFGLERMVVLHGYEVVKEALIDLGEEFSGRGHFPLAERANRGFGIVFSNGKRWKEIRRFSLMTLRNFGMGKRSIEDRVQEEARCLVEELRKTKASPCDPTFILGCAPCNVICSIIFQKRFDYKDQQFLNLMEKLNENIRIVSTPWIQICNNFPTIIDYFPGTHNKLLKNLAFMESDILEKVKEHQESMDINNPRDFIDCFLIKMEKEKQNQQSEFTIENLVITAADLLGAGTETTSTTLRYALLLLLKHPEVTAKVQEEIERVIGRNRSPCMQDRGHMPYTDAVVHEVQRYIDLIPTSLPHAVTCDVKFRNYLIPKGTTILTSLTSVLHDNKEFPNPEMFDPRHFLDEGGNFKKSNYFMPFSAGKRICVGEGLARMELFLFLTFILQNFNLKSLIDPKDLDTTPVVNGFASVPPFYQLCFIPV
T3 sequence (P10635 whole entry): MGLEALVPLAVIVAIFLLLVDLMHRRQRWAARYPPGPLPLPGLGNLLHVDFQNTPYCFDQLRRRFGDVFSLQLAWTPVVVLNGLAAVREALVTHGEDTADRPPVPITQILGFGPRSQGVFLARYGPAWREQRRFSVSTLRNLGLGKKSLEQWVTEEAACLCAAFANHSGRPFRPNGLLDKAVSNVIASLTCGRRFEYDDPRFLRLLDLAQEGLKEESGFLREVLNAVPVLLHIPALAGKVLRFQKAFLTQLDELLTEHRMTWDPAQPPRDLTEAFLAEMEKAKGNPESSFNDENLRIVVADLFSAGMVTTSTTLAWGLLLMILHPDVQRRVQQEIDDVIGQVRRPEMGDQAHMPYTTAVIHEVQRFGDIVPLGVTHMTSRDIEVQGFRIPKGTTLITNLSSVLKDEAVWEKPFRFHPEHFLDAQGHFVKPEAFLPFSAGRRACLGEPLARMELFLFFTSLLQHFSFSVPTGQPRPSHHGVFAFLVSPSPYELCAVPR

| SMILES | inhibition at 10 µM (CYP2B6) | inhibition at 10 µM (CYP2C19) | inhibition at 10 µM (CYP2D6) | half-life at 1 µM [1] | AUC(0-t) [2] | Cmax [2] |
| --- | --- | --- | --- | --- | --- | --- |
| COC(=O)NS(=O)(=O)c1sc(CC(C)C)c(C)c1-c1ccc(Cn2ccnc2Cl)c(F)c1 [Compound I-14, Methyl ((3-(4-((2-chloro-1H-imidazol-1-yl)methyl)-3-fluorophenyl)-5-isobutyl-4-methylthiophen-2-yl)sulfonyl)carbamate] | 4.3% | 11.9% | 2.1% | 45 min | 7350 ng·h/mL | 5040 ng/mL |
| COC(=O)NS(=O)(=O)c1sc(CC(C)C)c(C)c1-c1ccc(Cn2ccnc2C(F)(F)F)cc1 [Compound I-9, Methyl ((5-isobutyl-4-methyl-3-(4-((2-(trifluoromethyl)-1H-imidazol-1-yl)methyl)phenyl)thiophen-2-yl)sulfonyl)carbamate] | 22.2% | 29.8% | 0% | 50.2 min | 7790 ng·h/mL | 5310 ng/mL |
| Cc1c(CC(C)C)sc(S(=O)(=O)Nc2ncccn2)c1-c1ccc(Cn2ccnc2Cl)cc1 [Compound I-23, 3-(4-((2-chloro-1H-imidazol-1-yl)methyl)phenyl)-5-isobutyl-4-methyl-N-(pyrimidin-2-yl)thiophene-2-sulfonamide] | 7.6% | 15.4% | 0% | 39.3 min | – | – |
| COC(=O)NS(=O)(=O)c1sc(CC(C)C)c(C)c1-c1ccc(Cn2ccnc2C(C)(C)O)cc1 [Compound I-19, Methyl ((3-(4-((2-(2-hydroxypropan-2-yl)-1H-imidazol-1-yl)methyl)phenyl)-5-isobutyl-4-methylthiophen-2-yl)sulfonyl)carbamate] | 3.8% | 0% | 0% | 71.2 min | 6820 ng·h/mL | 4030 ng/mL |
| Cc1c(CC(C)C)sc(S(=O)(=O)NC(=O)OCC(C)(C)O)c1-c1ccc(Cn2ccnc2C(F)(F)F)cc1 [Compound I-10, 2-hydroxy-2-methylpropyl ((5-isobutyl-4-methyl-3-(4-((2-(trifluoromethyl)-1H-imidazol-1-yl)methyl)phenyl)thiophen-2-yl)sulfonyl)carbamate] | 13.7% | 7.4% | 0% | 83.2 min | 5570 ng·h/mL | 3560 ng/mL |
| CCCCOC(=O)NS(=O)(=O)c1sc(CC(C)C)cc1-c1ccc(Cn2ccnc2)cc1 [Control Compound I, reference compound] | 63.2% | 100% | 86.5% | 9.13 min | 4920 ng·h/mL | 1320 ng/mL |
| Cc1c(CC(C)C)sc(S(=O)(=O)NC(=O)OCCO)c1-c1ccc(Cn2ccnc2C(F)(F)F)cc1 [Compound I-13, 2-hydroxyethyl ((5-isobutyl-4-methyl-3-(4-((2-(trifluoromethyl)-1H-imidazol-1-yl)methyl)phenyl)thiophen-2-yl)sulfonyl)carbamate] | 11.3% | 17.3% | 0% | 46.4 min | – | – |
